Test results as given in BigSolDB 2.1.

Sc1nc2ccccc2[nH]1
solubility (mole fraction)
Conditions	278.15 K	283.15 K	288.15 K	293.15 K	298.15 K	303.15 K	308.15 K	313.15 K	318.15 K
in 1,4-dioxane	0.0141	0.0153	0.0166	0.0181	0.0195	0.021	0.0227	0.0246	0.0265
in 2-butanone	0.0103	0.011	0.0117	0.0124	0.0133	0.0141	0.0151	0.0162	0.0172
in acetone	0.0121	0.0128	0.0135	0.0143	0.0152	0.016	0.0169	0.0179	0.0189
in acetonitrile	0.00102	0.00115	0.00129	0.00146	0.00163	0.00183	0.00205	0.00228	0.00257
in cyclohexane	4.36e-06	5.51e-06	7.05e-06	8.99e-06	1.16e-05	1.49e-05	1.88e-05	2.27e-05	2.81e-05
in ethanol	0.00532	0.00634	0.00746	0.00868	0.00998	0.0114	0.0126	0.0142	0.0158
in ethyl acetate	0.00198	0.00236	0.00275	0.00318	0.00366	0.00413	0.00463	0.00518	0.00577
in isopropanol	0.0034	0.00435	0.00528	0.00635	0.00755	0.0088	0.0102	0.0116	0.0132
in methanol	0.00625	0.0073	0.00848	0.00964	0.0109	0.0123	0.0138	0.0152	0.0169
in n-butanol	0.0041	0.0049	0.0058	0.0069	0.00809	0.00941	0.0109	0.0125	0.0144
in n-propanol	0.00484	0.00559	0.0065	0.00759	0.00872	0.00999	0.0114	0.0131	0.0151
in toluene	2.01e-05	2.73e-05	3.51e-05	4.35e-05	5.3e-05	6.38e-05	7.53e-05	8.87e-05	0.000104
